Assay results reported in patent publication US9271978B2 (Zenith Epigenetics Corp., priority 2012, dated 2016).

Key:
[1] = molecular target: T1, second bromodomain of Brd2 (BRD2(2)) (Homo sapiens, UniProt P25440); assay: Inhibition of tetra-acetylated histone H4 binding to Brd2 bromodomain 2 (TR-FRET); design: key: Active: Compounds with an IC50 value less than 30 μM were deemed to be active.; Not Active: Compounds with an IC50 value less than 30 μM were deemed to be active; details: tetra-acetylated histone H4 peptide, active = IC50 <30 μM
T1 construct: made in house; host or cells: E. coli BL21 (DE3)
T1 sequence (P25440 344-453 limits assumed): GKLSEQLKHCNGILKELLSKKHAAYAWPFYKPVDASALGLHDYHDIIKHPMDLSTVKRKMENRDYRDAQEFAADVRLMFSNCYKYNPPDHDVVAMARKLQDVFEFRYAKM
Summary of the method: (§1)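 N-terminally His-tagged bromodomains (200 nM), expressed in E. coli, were incubated with biotinylated tetra-acetylated histone H4 peptide (25-50 nM), Eu-cryptate streptavidin and XL665 anti-His antibody in HEPES pH 7.4 buffer with KF, 0.2% DMSO, 2 h at room temperature. Inhibition read as decreased 665/620 nm TR-FRET; IC50 from dose-response curves.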

[2] = test system: hIL-6 mRNA; assay: Inhibition of hIL-6 mRNA transcription in U937 cells; type: cell-based, human; design: key: Active: Compounds with an IC50 value less than 30 μM were deemed to be active.; Not Active: Compounds with an IC50 value less than 30 μM were deemed to be active; details: LPS stimulation, active = IC50 <30 μM
Summary of the method: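 U937 cells differentiated 3 days with 60 ng/mL PMA, pretreated 1 h with compound, then stimulated with 1 ug/mL E. coli LPS for 3 h at 37° C. hIL-6 mRNA quantified by one-step qRT-PCR, Ct normalized to internal control, expressed as fold induction relative to control.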

[3] = molecular target: T2, Brd4 bromodomain 1 (BRD4(1)) (Homo sapiens, UniProt O60885); assay: Inhibition of tetra-acetylated histone H4 binding to Brd4 bromodomain 1 (TR-FRET); design: key: Active: Compounds with an IC50 value less than 30 μM were deemed to be active.; Not Active: Compounds with an IC50 value less than 30 μM were deemed to be active; details: tetra-acetylated histone H4 peptide, active = IC50 <30 μM
T2 construct: Illustrative results with the first bromodomain of Brd4; made in house; host or cells: E. coli BL21 (DE3)
Summary of the method: as §1

[4] = test system: c-myc; assay: Inhibition of c-myc expression in MV4-11 cells (mRNA, real-time PCR); type: cell-based; design: key: Active: Compounds with an IC50 value less than 30 μM were deemed to be active.; Not Active: Compounds with an IC50 value less than 30 μM were deemed to be active; details: Human AML MV4-11 cells, 3 h incubation
Summary of the method: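 MV4-11 cells (2.5×10^4) treated with compound or 0.1% DMSO for 3 h at 37 °C. c-myc mRNA measured by RT real-time PCR duplexed with cyclophilin. IC50 from dose–response curve.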

[5] = test system: ApoA-I mRNA; assay: Up-regulation of hApoA-1 mRNA transcription in Huh7 cells; type: cell-based, human; design: key: Active: Compounds with an EC170 value less than 30 μM were deemed to be active; details: 48 h treatment, ApoA-I mRNA by real-time PCR, Active = EC170 less than 30 μM
Procedure: In this example, ApoA-I mRNA in tissue culture cells was quantitated to measure the transcriptional up-regulation of ApoA-I when treated with a compound of the present disclosure.
Huh7 cells (2.5×10^5 per well) were plated in a 96-well plate using 100 μL DMEM per well, (Gibco DMEM supplemented with penicillin/streptomycin and 10% FBS), 24 h before the addition of the compound of interest. After 48 h treatment, the spent media was removed from the Huh-7 cells and placed on ice (for immediate use) or at −80° C. (for future use) with the “LDH cytotoxicity assay Kit II” from Abcam. The cells remaining in the plate were rinsed with 100 μL PBS.
Then 85 μL of cell lysis solution was added to each well and incubated for 5-10 min at room temperature, to allow for complete cell lysis and detachment. mRNA was then prepared using the “mRNA Catcher PLUS plate” from Life Technologies, according to the protocol supplied. After the last wash, as much wash buffer as possible was aspirated without allowing the wells to dry. Elution Buffer (E3, 80 μL) was then added to each well. mRNA was then eluted by incubating the mRNA Catcher PLUS plate with Elution Buffer for 5 min at 68° C., and then 1 min at 4° C. Catcher plates with mRNA eluted were kept on ice for use or stored at −80° C.
The eluted mRNA isolated was then used in a one-step real-time PCR reaction, using components of the Ultra Sense Kit together with Life Technologies primer-probe mixes. Real-time PCR data was analyzed, using the Ct values, to determine the fold induction of each unknown sample, relative to the control (that is, relative to the control for each independent DMSO concentration).
Compounds with an EC170 value less than 30 μM were deemed to be active.

[6] = test system: human AML MV-4-11 (CRL-9591) cells; assay: Inhibition of cell proliferation in MV4-11 cells; type: cell-based; design: key: Active: Compounds with an IC50 value less than 30 μM were deemed to be active.; Not Active: Compounds with an IC50 value less than 30 μM were deemed to be active; details: human AML MV-4-11 cells, 72 h; active = IC50 <30 μM
Summary of the method: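 Exponentially growing MV-4-11 cells (5×10^4/well) were treated immediately with two-fold dilutions of compound from 30 μM to 0.2 μM, in triplicate, for 72 h at 37° C, 5% CO2. Viability was measured by MTS absorbance at 490 nm after 3–4 h. Proliferation relative to DMSO after blank correction gave IC50.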

Row | Compound | FRET activity (IC50 <30 μM) BRD2(2) [1] | IL-6 activity (IC50 <30 μM) [2] | FRET activity (IC50 <30 μM) BRD4(1) [3] | c-myc activity (IC50 <30 μM) [4] | ApoA-1 activity (EC170 <30 μM) [5] | Cell Proliferation activity (IC50 <30 μM) [6]
1 | Cc1noc(C)c1-c1cc(Nc2ccccc2)c(=O)n(Cc2ccccc2)c1 [Example 72, 1-Benzyl-5-(3,5-dimethylisoxazol-4-yl)-3-(phenylamino)pyridin-2(1H)-one] | Active | Active | Active | Active | Active | –
2 | CN1CCN(c2ccc(=O)n(Cc3ccccc3)n2)CC1=O [Example 179, 2-benzyl-6-(4-methyl-3-oxopiperazin-1-yl)pyridazin-3(2H)-one] | – | Active | Active | Active | Active | Active
3 | Cc1noc(C)c1-c1cc(Cl)c(=O)n(Cc2ccc(F)cc2)c1 [Example 181, 3-chloro-5-(3,5-dimethylisoxazol-4-yl)-1-(4-fluorobenzyl)pyridin-2(1H)-one] | – | Not Active | Active | Active | Active | Not Active
4 | Cc1noc(C)c1-c1cc(Nc2ccccc2)c(=O)n(Cc2ccc(F)cc2)c1 [Example 182, 5-(3,5-dimethylisoxazol-4-yl)-1-(4-fluorobenzyl)-3-(phenylamino)pyridin-2(1H)-one] | – | Active | Active | Active | Active | Not Active
5 | Cc1noc(C)c1-c1cc(N2CCC2)c(=O)n(Cc2ccccc2)c1 [Example 183, 3-(Azetidin-1-yl)-1-benzyl-5-(3,5-dimethylisoxazol-4-yl)pyridin-2(1H)-one] | – | – | Active | Active | Active | Active
6 | Cc1noc(C)c1-c1cc(Nc2ccn(C)n2)c(=O)n(Cc2ccccc2)c1 [Example 184, 1-benzyl-5-(3,5-dimethylisoxazol-4-yl)-3-((1-methyl-1H-pyrazol-3-yl)amino)pyridin-2(1H)-one] | – | – | Active | Active | Active | Active
7 | Cc1noc(C)c1-c1cc(-c2cccc(C(N)=O)c2)c(=O)n(Cc2ccccc2)c1 [Example 185, 3-(1-benzyl-5-(3,5-dimethylisoxazol-4-yl)-2-oxo-1,2-dihydropyridin-3-yl)benzamide] | – | Not Active | Active | Active | Active | Active
8 | CCNc1cc(-c2c(C)noc2C)cn(Cc2ccccc2)c1=O [Example 186, 1-benzyl-5-(3,5-dimethylisoxazol-4-yl)-3-(ethylamino)pyridin-2(1H)-one] | – | Active | Active | Active | Active | Active
9 | Cc1onc(CO)c1-c1cc(N)c(=O)n(Cc2ccccc2)c1 [Example 189, 3-Amino-1-benzyl-5-(3-(hydroxymethyl)-5-methylisoxazol-4-yl)pyridin-2(1H)-one] | – | Active | Active | Active | Active | Active
10 | Cc1noc(C)c1-c1cc(N2CCOCC2)c(=O)n(Cc2ccccc2)c1 [Example 190, 1-benzyl-5-(3,5-dimethylisoxazol-4-yl)-3-morpholinopyridin-2(1H)-one] | – | Not Active | Active | Active | Active | Active
11 | Cc1noc(C)c1-c1cc(OCc2ccccc2)c(=O)n(Cc2ccccc2)c1 [Example 191, 1-benzyl-3-(benzyloxy)-5-(3,5-dimethylisoxazol-4-yl)pyridin-2(1H)-one] | – | Not Active | Active | Active | Active | Active
12 | Cc1noc(C)c1-c1cc(NC(C)C)c(=O)n(Cc2ccccc2)c1 [Example 192, 1-benzyl-5-(3,5-dimethylisoxazol-4-yl)-3-(isopropylamino)pyridin-2(1H)-one] | – | Active | Active | Active | Active | Active
13 | Cc1noc(C)c1-c1cc(Nc2ccccn2)c(=O)n(Cc2ccccc2)c1 [Example 193, 1-benzyl-5-(3,5-dimethylisoxazol-4-yl)-3-(pyridin-2-ylamino)pyridin-2(1H)-one] | – | Active | Not Active | Not Active | Active | Active
14 | Cc1noc(C)c1-c1cc(Nc2cccnc2)c(=O)n(Cc2ccccc2)c1 [Example 194, 1-benzyl-5-(3,5-dimethylisoxazol-4-yl)-3-(pyridin-3-ylamino)pyridin-2(1H)-one] | – | Active | Active | Active | Active | Active
15 | Cc1noc(C)c1-c1cc(C#N)c(=O)n(Cc2ccccc2)c1 [Example 198, 1-Benzyl-5-(3,5-dimethylisoxazol-4-yl)-2-oxo-1,2-dihydropyridine-3-carbonitrile] | – | Not Active | Active | Not Active | Active | Not Active
16 | Cc1noc(C)c1-c1cc(N)c(=O)n(Cc2ccc(Cl)c(F)c2)c1 [Example 203, 3-amino-1-(4-chloro-3-fluorobenzyl)-5-(3,5-dimethylisoxazol-4-yl)pyridin-2(1H)-one] | – | Active | Active | Active | Active | Active
